Experimental data: ChEMBL document CHEMBL1201862, “PubChem BioAssay data set” (2004)
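In this assay, cells in 96-well plates receive the compound at five concentrations for 48 hours. Endpoints are linearly interpolated between the surrounding concentrations. At the GI50, growth is halved.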 Calls of active or inactive are those of the source. Cut-off read from the data, not from the text of the source: active = GI50 up to about 1.1 µM and inactive = higher.

Key:
Assay in all cases: NCI tumour cell line growth inhibition, 48 h
Hs-578T = test system: Hs-578T
MDA-N = test system: MDA-N
DMS-114 = test system: DMS-114
DMS-273 = test system: DMS-273
HOP-18 = test system: HOP-18
M19-MEL = test system: M19-MEL
SNB-78 = test system: SNB-78
XF498 = test system: XF498

CCC1c2[nH]c3ccccc3c2C[C@H]2C(=O)NC(C)C(=O)N12 (stereo not given in full)
GI50 (Hs-578T): > 100 µM (inactive)
GI50 (MDA-N): > 100 µM (inactive)

O=C1c2ccccc2C(=O)c2c1ccc(C(=O)O)c2-c1ccc2ccccc2c1
GI50 (Hs-578T): 23.9 µM (inactive)
GI50 (MDA-N): 26.5 µM (inactive)

COc1cc2c(c(N)c1OC)C(=O)/C(=C/c1cc(C)c(O)c(C)c1)C2
GI50 (MDA-N): < 0.01 µM (active)

C=C1C(=O)C2=CC1CCC(=O)C1(C)CCC(OC(C)=O)C(C)(C)C1CC2O (stereo not given)
GI50 (Hs-578T): 3.58 µM (inactive)
GI50 (MDA-N): 1.4 µM (inactive)

O=c1c(O)c(-c2cc(O)c(O)cc2O)oc2cc(O)c(C3OC(CO)C(O)C(O)C3O)c(O)c12 (stereo not given)
GI50 (Hs-578T): > 100 µM (inactive)
GI50 (MDA-N): > 100 µM (inactive)

O=C(NC(C(F)(F)F)(C(F)(F)F)P(=O)(Cc1ccccc1)Cc1ccccc1)C(C(F)(F)F)C(F)(F)F
GI50 (Hs-578T): 55.7 µM (inactive)
GI50 (MDA-N): 19.5 µM (inactive)

CC1=NOC(=O)/C1=C/c1cccc2ccccc12
GI50 (DMS-114): > 100 µM (inactive)
GI50 (DMS-273): > 100 µM (inactive)
GI50 (HOP-18): > 100 µM (inactive)
GI50 (M19-MEL): > 100 µM (inactive)
GI50 (SNB-78): > 100 µM (inactive)

Cc1ccccc1NC(=O)C(=O)CC(=O)C1CCOC1=O (stereo not given)
GI50 (DMS-114): > 100 µM (inactive)
GI50 (DMS-273): > 100 µM (inactive)
GI50 (HOP-18): 7.29 µM (inactive)
GI50 (M19-MEL): > 100 µM (inactive)
GI50 (SNB-78): > 100 µM (inactive)
GI50 (XF498): > 100 µM (inactive)

O=C1C2CC=CCC2C(=O)C12CCc1ccccc12 (stereo not given)
GI50 (DMS-273): > 100 µM (inactive)
GI50 (HOP-18): 8.15 µM (inactive)
GI50 (M19-MEL): > 100 µM (inactive)
GI50 (SNB-78): > 100 µM (inactive)
GI50 (XF498): > 100 µM (inactive)

CC(C)[Si](OC/C(=C/COC(C)(C)C)[C@H]1CC=C(C(=O)c2ccccc2N2CN(C)C(=O)N(C)C2)C1)(C(C)C)C(C)C
GI50 (Hs-578T): 2.6 µM (inactive)
GI50 (MDA-N): 2.18 µM (inactive)

Cc1ccc(C)n1-c1ccccc1C1C=CN(C(=O)OC(C)(C)C)C=C1
GI50 (Hs-578T): 37.8 µM (inactive)
GI50 (MDA-N): 46.2 µM (inactive)

C[s+]1c2ccccc2c2ccccc21
GI50 (DMS-273): > 100 µM (inactive)
GI50 (M19-MEL): > 100 µM (inactive)
GI50 (SNB-78): > 100 µM (inactive)
GI50 (XF498): > 100 µM (inactive)

O=C1OCC/C1=N/O
GI50 (DMS-114): > 100 µM (inactive)
GI50 (DMS-273): > 100 µM (inactive)
GI50 (HOP-18): > 100 µM (inactive)
GI50 (M19-MEL): > 100 µM (inactive)
GI50 (SNB-78): > 100 µM (inactive)

COc1ccc(/C=N/NC(=O)O)cc1
GI50 (Hs-578T): > 100 µM (inactive)
GI50 (MDA-N): > 100 µM (inactive)

CCOC(=O)C1(Cc2c[nH]c3ccccc23)C(O)CCCN1C(C)=O (stereo not given)
GI50 (Hs-578T): > 100 µM (inactive)

O=C(O)c1ccccc1/C=N\N=C1NCCCCN1
GI50 (Hs-578T): > 100 µM (inactive)
GI50 (MDA-N): > 100 µM (inactive)

COc1ccc2nc3c([N+](=O)[O-])ccc(NCCCN(C)C)c3c(N)c2c1
GI50 (Hs-578T): 2.78 µM (inactive)
GI50 (MDA-N): 1.82 µM (inactive)

Fc1ccc(Oc2nc3ccccc3nc2-c2ccccc2)cc1
GI50 (Hs-578T): 94.4 µM (inactive)

CCOC(=O)/C(=C\c1ccc(N(CCC#N)CCC#N)cc1C)NC(=O)/C=C/c1ccccc1
GI50 (DMS-114): > 100 µM (inactive)
GI50 (DMS-273): > 100 µM (inactive)
GI50 (M19-MEL): > 100 µM (inactive)
GI50 (SNB-78): > 100 µM (inactive)
GI50 (XF498): > 100 µM (inactive)

NC1CC(=O)c2c(Br)csc21 (stereo not given)
GI50 (MDA-N): 12.5 µM (inactive)

O=P1(N(CCCl)CCCl)Oc2c(Cl)cc(Cl)c(Cl)c2Cc2c(Cl)c(Cl)cc(Cl)c2O1
GI50 (Hs-578T): 30.3 µM (inactive)
GI50 (MDA-N): 67.8 µM (inactive)

CC(=O)OCC1OC(n2c3c(cc(C#N)c2=S)CCCCC3)C(OC(C)=O)C(OC(C)=O)C1OC(C)=O (stereo not given)
GI50 (Hs-578T): > 100 µM (inactive)
GI50 (MDA-N): > 100 µM (inactive)

C[C@H]1CC[C@@H]2[C@@H](C)[C@H]3[C@H](C[C@H]4[C@@H]5CC=C6C[C@@H](O)CC[C@]6(C)[C@H]5CC[C@]34C)N2C1
GI50 (Hs-578T): 33.3 µM (inactive)
GI50 (MDA-N): > 100 µM (inactive)

O=Cc1cn(CCCCCCCCCCCCn2cc(C=O)c3ccccc32)c2ccccc12
GI50 (Hs-578T): 4.04 µM (inactive)
GI50 (MDA-N): > 100 µM (inactive)

COc1cc(Oc2nc3ccc(C(F)(F)F)cc3nc2-c2ccccc2)cc(OC)c1OC
GI50 (Hs-578T): 21.9 µM (inactive)
GI50 (MDA-N): 40.7 µM (inactive)

O=C1OC2C(O)COC2(O)C1(O)Cc1c[nH]c2ccccc12 (stereo not given)
GI50 (DMS-114): > 100 µM (inactive)
GI50 (DMS-273): > 100 µM (inactive)
GI50 (HOP-18): > 100 µM (inactive)
GI50 (M19-MEL): > 100 µM (inactive)
GI50 (SNB-78): > 100 µM (inactive)
GI50 (XF498): > 100 µM (inactive)

CS(=O)(=O)OCC1CCCCCCCCCCC12SCCCS2 (stereo not given)
GI50 (Hs-578T): > 100 µM (inactive)
GI50 (MDA-N): > 100 µM (inactive)

Cc1c(Cl)c(S(N)(=O)=O)cc2c1N=CNS2(=O)=O
GI50 (Hs-578T): > 100 µM (inactive)
GI50 (MDA-N): > 100 µM (inactive)

Cc1c(-c2ccccc2)c(C#N)c2nnn(-c3cccc(Cl)c3)c(=O)n12
GI50 (Hs-578T): > 100 µM (inactive)
GI50 (MDA-N): > 100 µM (inactive)

CC1CC(=O)Nc2ccccc2N1C(=O)C1CC1 (stereo not given)
GI50 (Hs-578T): > 100 µM (inactive)
GI50 (MDA-N): > 100 µM (inactive)

CC1(C)O[C@@H](CCl)C[C@H](C#N)O1
GI50 (DMS-114): > 100 µM (inactive)
GI50 (DMS-273): > 100 µM (inactive)
GI50 (HOP-18): > 100 µM (inactive)
GI50 (M19-MEL): > 100 µM (inactive)
GI50 (SNB-78): > 100 µM (inactive)
GI50 (XF498): > 100 µM (inactive)

CC(C)(C)/N=C\N(C=C(c1ccccc1)c1ccccc1)C1CCCCC1
GI50 (DMS-114): 19.2 µM (inactive)
GI50 (DMS-273): 46.6 µM (inactive)
GI50 (HOP-18): 52.2 µM (inactive)
GI50 (M19-MEL): 44.2 µM (inactive)
GI50 (SNB-78): 69 µM (inactive)
GI50 (XF498): 16.6 µM (inactive)
